Tested on: healthy participants
Experiment: Phase 1 Part B multiple ascending dose (MAD): blood pressure
Type: in vivo, human
Settings: for Mean SBP: in mmHg (unit assumed)
Method: The study was performed in 3 parts in 112 healthy male and female participants, including 24 Japanese participants. Female participants were to be not of childbearing potential. The present study was designed to evaluate the safety and tolerability, PK, and exploratory PD of an oral suspension of Compound A. Parts A and B (Cohort B1 only) enrolled healthy participants and was conducted at a site in The Netherlands and Part B (Cohort B2 to B5) enrolled healthy non-Japanese participants and was conducted at a site in the United Kingdom (UK). Part C enrolled healthy Japanese participants and was conducted at the same site in the UK.
Part B was a MAD study in a planned number of 6 sequential dose escalation cohorts (10 mg QD, 30 mg QD, 30 mg BID, 60 mg BID, 125 mg BID, and ≤250 mg BID) of 8 healthy participants (6 active+2 placebo) each, under fasted conditions. However, Cohort B6 (≤250 mg BID) was cancelled because sufficient safety and PK data had been obtained at doses up to 125 mg BID. Eligible participants received study drug (Compound A or placebo) administered orally for 14 days.
Physical examinations, vital sign measurements (including orthostasis testing in Cohort A6, Cohort B3 to B5, and C1 to C3 at selected time points), 12-lead electrocardiogram (ECG), and clinical laboratory evaluations were performed at selected times throughout the study. In addition, Holter monitoring was performed for the first 24 hours post dose on Day 1 in Part A (not in FE/pH cohort), and also for the first 24 hours post dose on Day 1 and Day 14 in Parts B and C. Participants were closely monitored for adverse events (AEs). Blood samples were collected for up to 14 days (follow-up visit) after (last) study drug administration for PK analysis. In addition, blood and urine were collected for exploratory biomarker assessments and for biobanking of samples for potential analyses. Urine was collected for potential PK analysis for up to 96 hours after a single dose of Compound A or placebo was administered in the SAD part, and for up to 24 hours after the first (morning) dose of study drug on Day 1 and for up to 24 hours after the last (morning) dose of study drug on Day 14 in the MAD parts.

`CCCN(C)C(=O)OCc1c(-c2ccc(O[C@H]3CCC[C@H](C(=O)O)C3)c(C)n2)nnn1C` [Compound A, (1S,3S)-3-((2-methyl-6-(1-methyl-5-(((methyl(propyl)carbamoyl)-oxy)methyl)-1H-1,2,3-triazol-4-yl)pyridin-3-yl)oxy)cyclohexane-1-carboxylic acid] was tested, and the “Maximum of mean (±SD) reduction in DBP from baseline” value (MAD 10 mg QD (B1)) was 6.8 ± 2.64 mmHg, the “Time of maximum mean DBP reduction” value (MAD 10 mg QD (B1)) was 1-5 Day-h and the Mean DBP (MAD 10 mg QD, D 1 2 h) was 70.2 mmHg. For the same molecule, the “Mean SBP” value (MAD 10 mg QD, D 1 2 h) was 112.2, the Mean DBP (MAD 10 mg QD, D 1 4 h) was 65.8 mmHg and the “Mean SBP” value (MAD 10 mg QD, D 1 4 h) was 109.5. The Mean DBP (MAD 10 mg QD, D 1 8 h) was 68.7 mmHg, the “Mean SBP” value (MAD 10 mg QD, D 1 8 h) was 112.8 and the Mean DBP (MAD 10 mg QD, D 2 24 h) was 65.3 mmHg. The “Mean SBP” value (MAD 10 mg QD, D 2 24 h) was 108.5, the Mean DBP (MAD 10 mg QD, D 14 312 h) was 69.3 mmHg and the “Mean SBP” value (MAD 10 mg QD, D 14 312 h) was 112.8. The Mean DBP (MAD 10 mg QD, D 14 314 h) was 67.5 mmHg, the “Mean SBP” value (MAD 10 mg QD, D 14 314 h) was 113.5 and the Mean DBP (MAD 10 mg QD, D 14 317 h) was 64.3 mmHg. For the same molecule, the “Mean SBP” value (MAD 10 mg QD, D 14 317 h) was 114.5, the Mean DBP (MAD 10 mg QD, D 14 320 h) was 67.5 mmHg and the “Mean SBP” value (MAD 10 mg QD, D 14 320 h) was 111.2. The Mean DBP (MAD 10 mg QD, D 15 336 h) was 66.8 mmHg, the “Mean SBP” value (MAD 10 mg QD, D 15 336 h) was 110.8 and the “Maximum of mean (±SD) reduction in DBP from baseline” value (MAD 30 mg BID (B3)) was 11.2 ± 4.58 mmHg. For the same molecule, the “Maximum of mean (±SD) reduction in SBP from baseline” value (MAD 30 mg BID (B3)) was 15.8 ± 10.19 mmHg, the “Time of maximum mean DBP reduction” value (MAD 30 mg BID (B3)) was 1-5 Day-h and the “Time of maximum mean SBP reduction” value (MAD 30 mg BID (B3)) was 1-5 Day-h. The Mean DBP (MAD 30 mg BID, D 1 2 h) was 63.3 mmHg, the “Mean SBP” value (MAD 30 mg BID, D 1 2 h) was 106.5 and the Mean DBP (MAD 30 mg BID, D 1 4 h) was 62.7 mmHg. The “Mean SBP” value (MAD 30 mg BID, D 1 4 h) was 107.2, the Mean DBP (MAD 30 mg BID, D 1 8 h) was 63.2 mmHg and the “Mean SBP” value (MAD 30 mg BID, D 1 8 h) was 106.3. The Mean DBP (MAD 30 mg BID, D 2 24 h) was 66.7 mmHg, the “Mean SBP” value (MAD 30 mg BID, D 2 24 h) was 114.7 and the Mean DBP (MAD 30 mg BID, D 14 312 h) was 68.7 mmHg. For the same molecule, the “Mean SBP” value (MAD 30 mg BID, D 14 312 h) was 119.7, the Mean DBP (MAD 30 mg BID, D 14 314 h) was 63.8 mmHg and the “Mean SBP” value (MAD 30 mg BID, D 14 314 h) was 109.7. For the same molecule, the Mean DBP (MAD 30 mg BID, D 14 317 h) was 61 mmHg, the “Mean SBP” value (MAD 30 mg BID, D 14 317 h) was 114.3 and the “Mean SBP” value (MAD 30 mg BID, D 14 320 h) was 110.0. The Mean DBP (MAD 30 mg BID, D 15 336 h) was 65.3 mmHg, the “Mean SBP” value (MAD 30 mg BID, D 15 336 h) was 116.3 and the “Maximum of mean (±SD) reduction in DBP from baseline” value (MAD 30 mg QD (B2)) was 8.8 ± 4.62 mmHg. For the same molecule, the “Maximum of mean (±SD) reduction in SBP from baseline” value (MAD 30 mg QD (B2)) was 10.7 ± 7.06 mmHg, the Mean DBP (MAD 30 mg QD, D 1 2 h) was 66.5 mmHg and the “Mean SBP” value (MAD 30 mg QD, D 1 2 h) was 104.8. For the same molecule, the Mean DBP (MAD 30 mg QD, D 1 4 h) was 67.8 mmHg, the “Mean SBP” value (MAD 30 mg QD, D 1 4 h) was 102.3 and the Mean DBP (MAD 30 mg QD, D 1 8 h) was 66 mmHg. The “Mean SBP” value (MAD 30 mg QD, D 1 8 h) was 107.2, the Mean DBP (MAD 30 mg QD, D 2 24 h) was 67.3 mmHg and the “Mean SBP” value (MAD 30 mg QD, D 2 24 h) was 114.3. The Mean DBP (MAD 30 mg QD, D 14 312 h) was 63.3 mmHg, the “Mean SBP” value (MAD 30 mg QD, D 14 312 h) was 110.0 and the Mean DBP (MAD 30 mg QD, D 14 314 h) was 63.5 mmHg. For the same molecule, the “Mean SBP” value (MAD 30 mg QD, D 14 314 h) was 101.7, the Mean DBP (MAD 30 mg QD, D 14 317 h) was 61.8 mmHg and the “Mean SBP” value (MAD 30 mg QD, D 14 317 h) was 102.3. For the same molecule, the Mean DBP (MAD 30 mg QD, D 14 320 h) was 63.2 mmHg, the “Mean SBP” value (MAD 30 mg QD, D 14 320 h) was 101.5 and the Mean DBP (MAD 30 mg QD, D 15 336 h) was 62.3 mmHg. The “Mean SBP” value (MAD 30 mg QD, D 15 336 h) was 107.3, the “Maximum of mean (±SD) reduction in DBP from baseline” value (MAD 60 mg BID (B4)) was 8.3 ± 6.89 mmHg and the “Maximum of mean (±SD) reduction in SBP from baseline” value (MAD 60 mg BID (B4)) was 17.5 ± 11.31 mmHg. The “Time of maximum mean DBP reduction” value (MAD 60 mg BID (B4)) was 3-4 Day-h, the Mean DBP (MAD 60 mg BID, D 1 2 h) was 64.5 mmHg and the “Mean SBP” value (MAD 60 mg BID, D 1 2 h) was 110.2. The Mean DBP (MAD 60 mg BID, D 1 4 h) was 66 mmHg, the “Mean SBP” value (MAD 60 mg BID, D 1 4 h) was 106.7 and the Mean DBP (MAD 60 mg BID, D 1 8 h) was 64.7 mmHg. The “Mean SBP” value (MAD 60 mg BID, D 1 8 h) was 109.3, the Mean DBP (MAD 60 mg BID, D 2 24 h) was 65.7 mmHg and the “Mean SBP” value (MAD 60 mg BID, D 2 24 h) was 118.8. For the same molecule, the Mean DBP (MAD 60 mg BID, D 14 312 h) was 64.8 mmHg, the “Mean SBP” value (MAD 60 mg BID, D 14 312 h) was 111.8 and the Mean DBP (MAD 60 mg BID, D 14 314 h) was 64 mmHg. The “Mean SBP” value (MAD 60 mg BID, D 14 314 h) was 110.5, the Mean DBP (MAD 60 mg BID, D 14 317 h) was 62.5 mmHg and the “Mean SBP” value (MAD 60 mg BID, D 14 317 h) was 114.8. The Mean DBP (MAD 60 mg BID, D 14 320 h) was 63 mmHg, the “Mean SBP” value (MAD 60 mg BID, D 14 320 h) was 115.5 and the Mean DBP (MAD 60 mg BID, D 15 336 h) was 64.5 mmHg. The “Mean SBP” value (MAD 60 mg BID, D 15 336 h) was 114.5, the “Maximum of mean (±SD) reduction in DBP from baseline” value (MAD 125 mg BID (B5)) was 14.7 ± 5.68 mmHg and the “Maximum of mean (±SD) reduction in SBP from baseline” value (MAD 125 mg BID (B5)) was 14.5 ± 5.86 mmHg. The “Time of maximum mean DBP reduction” value (MAD 125 mg BID (B5)) was 12-12 Day-h, the Mean DBP (MAD 125 mg BID, D 1 2 h) was 62.3 mmHg and the “Mean SBP” value (MAD 125 mg BID, D 1 2 h) was 112.2. For the same molecule, the Mean DBP (MAD 125 mg BID, D 1 4 h) was 64.7 mmHg, the “Mean SBP” value (MAD 125 mg BID, D 1 4 h) was 112.2 and the Mean DBP (MAD 125 mg BID, D 1 8 h) was 64.7 mmHg. For the same molecule, the “Mean SBP” value (MAD 125 mg BID, D 1 8 h) was 107.3, the Mean DBP (MAD 125 mg BID, D 2 24 h) was 66.3 mmHg and the “Mean SBP” value (MAD 125 mg BID, D 2 24 h) was 118.8. For the same molecule, the Mean DBP (MAD 125 mg BID, D 14 312 h) was 62 mmHg, the “Mean SBP” value (MAD 125 mg BID, D 14 312 h) was 111.3 and the Mean DBP (MAD 125 mg BID, D 14 314 h) was 65 mmHg. For the same molecule, the “Mean SBP” value (MAD 125 mg BID, D 14 314 h) was 116.0, the Mean DBP (MAD 125 mg BID, D 14 317 h) was 59.2 mmHg and the “Mean SBP” value (MAD 125 mg BID, D 14 317 h) was 116.3. For the same molecule, the Mean DBP (MAD 125 mg BID, D 14 320 h) was 61.8 mmHg, the “Mean SBP” value (MAD 125 mg BID, D 14 320 h) was 114.5 and the Mean DBP (MAD 125 mg BID, D 15 336 h) was 63 mmHg. The “Mean SBP” value (MAD 125 mg BID, D 15 336 h) was 111.3, the “BP reductions versus placebo” value (MAD BID groups) was “no clear differences between placebo and the Compound A groups” and the “Dose dependence of mean SBP and DBP reductions” value (MAD QD groups) was “reductions generally occurred in a Compound A dose-dependent manner”.

Reference: patent US20240216352A1 (priority 2022, published 2024)
